The source of these data is US12029738B2, “Antiproliferative compounds and methods of use thereof” (Celgene Corporation, priority 2017, dated 2024).

Entries after “also recorded” stand apart in the source; their conditions may differ. Like-named read-outs stand apart in the source and are kept apart here.

Data set [1] addresses T1, CYP2B6 (Homo sapiens, UniProt P20813).
T1 construct: from tissue; host or cells: pooled human liver microsomes
T1 sequence (P20813 1-491): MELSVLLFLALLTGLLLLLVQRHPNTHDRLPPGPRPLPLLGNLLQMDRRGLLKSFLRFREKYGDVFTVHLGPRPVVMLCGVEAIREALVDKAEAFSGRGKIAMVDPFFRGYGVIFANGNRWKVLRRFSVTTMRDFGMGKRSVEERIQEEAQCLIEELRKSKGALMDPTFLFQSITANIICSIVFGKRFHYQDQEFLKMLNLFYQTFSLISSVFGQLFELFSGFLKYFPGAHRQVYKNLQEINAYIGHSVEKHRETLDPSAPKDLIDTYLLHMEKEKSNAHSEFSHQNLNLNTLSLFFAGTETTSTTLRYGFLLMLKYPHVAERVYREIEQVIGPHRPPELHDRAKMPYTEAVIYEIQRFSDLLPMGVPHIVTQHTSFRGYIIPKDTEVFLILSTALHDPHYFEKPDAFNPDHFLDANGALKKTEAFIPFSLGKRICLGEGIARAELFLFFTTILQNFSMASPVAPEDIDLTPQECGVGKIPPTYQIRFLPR
The data set can be described thus: CYP inhibition in pooled human liver microsomes. In kind it is in vitro ADME. How it is done: (§1) Methods. […] In addition, the compounds were evaluated for their potential to act as a time-dependent inhibitors at the same concentrations mentioned above. […] In addition to appropriate vehicle controls, known direct inhibitors and time-dependent inhibitors of CYP isoforms were included as positive controls. Following the incubation, concentrations of probe substrate metabolites were quantified using established LC/MS/MS methods. The extent of inhibition was expressed as the percentage of control activity.
(In general: Microsomes from liver hold many membrane-bound enzymes, among them those of drug oxidation.)

The target of data set [2] is T2, CYP2C19 (Homo sapiens, UniProt P33261).
T2 construct: from tissue; host or cells: pooled human liver microsomes
The data set can be described thus: CYP inhibition in pooled human liver microsomes. It is filed as in vitro ADME. How it is done: as §1

In data set [3] the target is T3, CYP2C9 (Homo sapiens, UniProt P11712).
T3 construct: from tissue; host or cells: pooled human liver microsomes
Kind of data set: CYP inhibition in pooled human liver microsomes. In kind it is in vitro ADME. How it is done: as §1

In data set [4] the test system is CYP3A4/5. The data set can be described thus: CYP inhibition in pooled human liver microsomes. In kind it is in vitro ADME. How it is done: as §1
For data set [5], the system named is OPM2. Kind of data set: PBMC and MM cell treatment assay (single culture vs co-culture). The settings on record: Homo sapiens, OPM-2, OPM2, read-out: Immune-mediated Cell Killing IC50. In kind it is cell-based. How it is done: PBMC and MM Cell Treatment Assay Procedure. Ninety-six-well dishes were pre-coated with anti-CD3 antibody (OKT3, 3 μg/mL) and incubated at 4° C. overnight before the start of the experiment. Frozen PBMC donor cells were thawed at 37° C. for 2 minutes in RPMI medium with 10% FBS and cell counts and viability were measured on the Vi-CELL analyzer. Peripheral blood mononuclear cells were washed and diluted to 1×10^6 cells/mL and dispensed into the compound-treated plates in a total volume of 200 μL. Cells were incubated with compounds for 2 h before being transferred onto anti-CD3-coated plates and incubated for an additional 72 h. At the same time, MM cell lines (NCI-H929, H929-1051, OPM2, OPM2-P10) were diluted to a final concentration of 0.1×10^6 cells/mL and labeled with CellTrace CFSE according to manufacturer's instructions. Multiple myeloma cell lines were then dispensed into compound-treated plates at a total volume of 200 μL and incubated for 72 h. After 72 h, the PBMCs and MM cells were counted and transferred into a U-bottom 96-well plate at a final T:E ratio of 1:5. After 24 h coculture, specific target cell lysis by PBMC cells was measured using Annexin V-AF647 and 7-AAD according to manufacturer's instructions and samples were run on the Attune NxT Cytometer.
Because preincubation of immune cells with Compound 2 enhanced the targeting and lysing of MM cells, the effect of preincubation of MM cells with Compound 2 on their susceptibility to immune-mediated killing was also explored (FIG. 16A, FIG. 16B, FIG. 16C, and FIG. 16D, Table 12). Four MM cell lines and anti-CD3 antibody-activated PBMCs were separately preincubated with Compound 2, lenalidomide, or pomalidomide for 72 h. When anti-CD3 antibody-activated PBMCs and MM lines were both pretreated with Compound 2, lenalidomide, or pomalidomide, followed by co-culture, the effects on the PBMC-induced MM cell lysis were enhanced both in the potency and magnitude of the killing response. […] For the pomalidomide-resistant OPM2-P10 cell line, Compound 2 treatment of the MM cells enhanced the immune-mediated killing by ˜3000-fold (Table 12).

Data set [6] relates to MM cell lines. Kind of data set: Daratumumab-mediated ADCP assay. In kind it is cell-based, human. Conditions: for daratumumab-mediated ADCP: ARH-77 cell line. How it is done:
ADCP assay: The effect of Compound 2 or pomalidomide on daratumumab-mediated ADCP was determined in a panel of MM cell lines. Monocytes were plated in a 96 well plate at 40,000 cells per well in 100 μL volume of complete AIM-V media containing 50 ng/mL of M-CSF. The cells were allowed to settle onto the plate for 15 minutes at room temperature before placing into 37° C., 5% C02 incubator for 9 days to allow for differentiation into macrophages. The culture media was replenished with fresh complete media every 3-4 days. On the morning of the ADCP assay, the macrophages were serum starved for 2-4 hours at 37° C., 5% C02 before co-culturing with the MM cells. The MM cells were pretreated with sub-lethal concentrations of Compound 2 or pomalidomide for 72 h. On the day of the assay, the MM cells were washed with PBS and labeled with CSFE for 15 minutes. The reaction was stopped with an equal volume of 20% FBS. The cells were washed twice with PBS and resuspended in AIM-V media at 1.6×10^6 cells/mL. Then 50 μL of MM cells was mixed with 50 μL of 2 μg/mL daratumumab for 10 minutes at room temperature before adding to the serum starved macrophages. Each condition was assayed in triplicate. The final volume of the assay was 200 μL containing 10% human serum with an effector to target ratio of […]. The plate was spun at 500 rpm for 1 minute followed by incubation at 37° C., 5% CO2 for 3 h. At the end of the incubation, the plate was washed with 100 μL of PBS and the remaining cells were stained with anti-CD14 and anti-CD138 to identify the macrophages and MM cells, respectively. The plate was washed and the wells were filled with 100 μL of PBS. The macrophages were detached from the bottom of the wells with the addition of 50 μL of 0.25% trypsin. The samples were neutralized with the addition of 50 μL of complete AIM-V media. The samples were analyzed on flow cytometer. The percent phagocytosis was determined by the CSFE/CD14 double positive cells divided by the total number of CD14+ cells times 100.

[7] abbreviates: up to 30 μM, 30 minute preincubation with or without NADPH.
[8] abbreviates: up to / at 30 μM, human liver microsomes.

T3 sequence (P11712 whole entry): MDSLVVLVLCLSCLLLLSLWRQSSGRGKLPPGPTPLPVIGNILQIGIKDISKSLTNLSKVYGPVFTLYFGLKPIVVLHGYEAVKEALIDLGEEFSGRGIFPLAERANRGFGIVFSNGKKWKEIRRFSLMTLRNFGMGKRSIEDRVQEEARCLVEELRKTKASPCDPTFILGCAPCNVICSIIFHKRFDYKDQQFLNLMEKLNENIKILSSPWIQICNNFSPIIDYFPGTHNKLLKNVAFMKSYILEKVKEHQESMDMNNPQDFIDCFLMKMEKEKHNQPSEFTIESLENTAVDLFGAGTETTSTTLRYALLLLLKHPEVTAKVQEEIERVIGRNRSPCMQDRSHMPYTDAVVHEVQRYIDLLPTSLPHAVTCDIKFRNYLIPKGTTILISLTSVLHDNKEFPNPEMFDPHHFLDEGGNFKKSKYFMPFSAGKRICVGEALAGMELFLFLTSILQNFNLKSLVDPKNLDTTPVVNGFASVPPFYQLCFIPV
T2 sequence (P33261 whole entry): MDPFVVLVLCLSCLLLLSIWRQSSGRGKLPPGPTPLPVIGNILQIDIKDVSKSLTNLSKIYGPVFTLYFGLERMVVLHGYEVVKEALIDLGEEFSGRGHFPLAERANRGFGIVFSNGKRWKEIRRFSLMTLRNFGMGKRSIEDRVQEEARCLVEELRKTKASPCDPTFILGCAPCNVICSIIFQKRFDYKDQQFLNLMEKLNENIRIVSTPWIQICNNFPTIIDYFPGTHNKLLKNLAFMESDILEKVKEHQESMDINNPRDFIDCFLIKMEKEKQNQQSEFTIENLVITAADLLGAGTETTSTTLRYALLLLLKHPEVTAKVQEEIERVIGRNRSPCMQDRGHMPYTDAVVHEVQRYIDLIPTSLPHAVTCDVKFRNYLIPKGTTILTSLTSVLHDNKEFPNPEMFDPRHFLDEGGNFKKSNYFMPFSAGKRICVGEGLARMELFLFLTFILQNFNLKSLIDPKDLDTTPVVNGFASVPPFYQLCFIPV

For `N#Cc1ccc(N2CCN(Cc3ccc(COc4cccc5c4CN([C@H]4CCC(=O)NC4=O)C5=O)cc3)CC2)c(F)c1` [Compound 2, (S)-4-(4-(4-(((2-(2,6-dioxopiperidin-3-yl)-1-oxoisoindolin-4-yl)oxy)methyl)benzyl)piperazin-1-yl)-3-fluorobenzonitrile], the inhibition at 30 µM was at most 30% in data set [1] (human, microsomes); 41% in data set [2] (human, microsomes); at most 30% in data set [3] (human, microsomes); 46% in data set [4] (human, microsomes, direct inhibition of CYP3A4/5 (testosterone)); 59% in data set [4] (human, microsomes, inhibition of CYP3A4/5 (testosterone) activity after preincubation with NADPH); 23% in data set [4] (human, microsomes, inhibition of CYP3A4/5 (testosterone) activity after preincubation without NADPH). The IC50 in data set [2] is above 30 µM; in data set [4] (human, microsomes), above 30 µM; in data set [5] (Co-culture with PBMCs), 0.0936 nM; in data set [5] (Single culture) it was 0.3 nM. Further, in data set [6] (72 h pretreatment, macrophages E:T 2:1), the “daratumumab-mediated ADCP of pretreated MM cells” value is “more sensitive to daratumumab-mediated ADCP compared to untreated and pomalidomide treated cells”. Moreover, the “daratumumab-mediated ADCP” value in data set [6] was “no enhanced ADCP”.
For the compound `O=C1CC[C@H](N2Cc3c(OCc4ccc(CN5CCN(c6ccc(F)cc6F)CC5)cc4)cccc3C2=O)C(=O)N1` [Compound B], the “time-dependent inhibition of CYP2B6” value in data set [1] (setting [7]) is listed as “little to no time-dependent inhibition; also recorded: not a time-dependent inhibitor”. Also, the “direct inhibition of CYP2B6” value in data set [1] (setting [8]) came out at 59%. In addition, the “direct inhibition of CYP2C19” value in data set [2] (at 30 μM, human liver microsomes) is given as 45%. Further, in data set [2] (setting [7]), the “time-dependent inhibition of CYP2C19” value is “little to no time-dependent inhibition; also recorded: not a time-dependent inhibitor”. For the same compound, in data set [3] (setting [7]), the “time-dependent inhibition of CYP2C9” value was “little to no time-dependent inhibition; also recorded: not a time-dependent inhibitor”. The “direct inhibition of CYP2C9” value in data set [3] (setting [8]) is 38%. In addition, the IC50 in data set [4] (30 minute preincubation with NADPH, substrate midazolam, read-out: shifted IC50 value (with NADPH) CYP3A4/5, midazolam) is 2.23 µM; in data set [4] (30 minute preincubation with NADPH, substrate testosterone, read-out: shifted IC50 value (with NADPH) CYP3A4/5, testosterone), 1.93 µM; in data set [4] (substrate testosterone, read-out: direct inhibition IC50 CYP3A4/5 (testosterone)), 2.92 µM. Moreover, the “time-dependent inhibition of CYP3A4/5 (overall finding)” value in data set [4] (up to 30 μM, 30 minute preincubation) is reported as “inhibited CYP3A4/5 in a time-dependent manner; also recorded: time-dependent inhibitor of CYP3A4/5”. In data set [4] (up to 30 μM, substrate midazolam), the “direct inhibition of CYP3A4/5 (midazolam)” value was “up to 30%”.
With `Nc1cccc2c1C(=O)N(C1CCC(=O)NC1=O)C2=O` (centres unmarked) [Pomalidomide, pomalidomide], the IC50 was 168 nM in data set [5] (Co-culture with PBMCs) and 627 nM in data set [5] (Single culture). Also, the “daratumumab-mediated ADCP” value in data set [6] is on record as “no enhanced ADCP”.

What is called inhibition is how much of the control response was suppressed. A lower inhibition goes with little suppression.
